Results published in PMC2365028, “Transepithelial Transport and Metabolism of Boronated Dipeptides Across Caco-2 and HCT-8 Cell Monolayers” (Metal-Based Drugs, 1996).
Where “and” joins values, the source holds several entries; their conditions need not be identical. Equal entries are not always repeated. Blank lines part the entries; values can stand above or below the compound they belong to. Where a SMILES comes first, the peptide text is derived from it.

Tests used:
HCT-8 cell monolayers = assay: Apical-to-basal transport across HCT-8 cell monolayers (Transwell)
Source text: TRANSEPITHELIAL TRANSPORT AND METABOLISM OF BORONATED DIPEPTIDES ACROSS CACO-2 AND HCT-8 CELL MONOLAYERS Amy L. Elkins,John G. Eley,3, Merrill C. […] This study examined the effect of boronation on the transepithelial transport and metabolism of three glycine-phenylalanine dipeptides in Caco-2 and HCT-8 cell monolayers. […] Oral delivery of proteins and peptides as therapeutic agents is problematic due to their low bioavailability. This is mainly due to both their poor permeability across cellular barriers and to enzymatic degradation that occurs in the gut lumen, brush border, and enterocyte cytoplasm (2). […] Such as a substitution may also have the potential to alter the in vivo bioavailability of dipeptides. […] This study was undertaken to determine the effect of boronation on the transepithelial transport and metabolism of three glycine-phenylalanine dipeptides. […] Caco-2 cells are human colon adenocarcinoma cells first isolated from a primary colonic tumor (4). The cell line undergoes spontaneous enterortic differentiation in culture after reaching cotfflucnce, and morphologically resembles small intestinal epitheliun after three xveeks in culture (5). These morphological characteristics include the development of a brush border region expressing microvilli, occluding junctions, dome formations, and the formation of tight junctions leading to cell polarity. […] The cell line expresses a dipeptide carrier transport system in both the apical and basal membranes (9-10). […] HCT-8 cells are human adenocarcinoma cells from the ileocecal region; as such, these cells may give a truer reflection of gut absorption compared to Caco-2 cells which are derived from the colonic region. The cells produce a polarized differentiated monolayer consisting of enterocyte-like columnar cells that are interconnected by mature tightjunctions and desmosomes and exposed microvilla (11). The structural and functional integrity of the tight junctions of cells grown on polyester filter cups (Falcon, BD) and membrane filter inserts (Transwell(R), Costar) have been confirmed by transmission electron microscopy, transepithelial electrical resistance measurements, and transport of impermeant markers such as mannitol and polyethylene glycol (11, 12). […] Compound//was donated by Boron Biologicals, Inc., Raleigh, NC. Compound 111 was synthesized as follows: L-phenylalanine methyl ester hydrochloride (2.09 g, 9.7 mmol) and dimethylglycine (1 g, 9.7 retool) xvere suspended in 30 ml dry tetrahydrofuran with 10 mmol of triethylamine, dicyclohexyl-carbodiinfide and hydrox3'benzotriazole. The reaction was stirred at room temperature for 48 hours under nitrogen and the solvent was removed under reduced pressure. The product was purified on silica gel, two void volumes of hexane, two void volumes hexane/ethanol (8'1), and then hexane/ethanol (5:1). […] For the transport studies, cells were diluted with growth medium to give a total of […] cells/cm in 1.5 mls. The 1.5 ntis was placed in the apical compartment of a Transwcll(R) (Costar). The Transxvell(R) system is a 6-well plate with each well having an apical compartment capacity of 1.5 ntis, a basal compartment capacity of 2.5 ntis, and a 4.71 cm polycarbonate microporous (0.45 gin) membrane separating the two compartments. Cell monolayers in the Transwell(R) were allowed to grow for 21 days while the medium was replaced every 3 days. […]

[1] = Stability in HBSS/HEPES buffer and apical/basal media without the Transwell system; type: physicochemical; details: HBSS/HEPES buffer pH 7.4, 37C, or apical and basal media
Caco-2 cell monolayers [2] = assay: Apical-to-basal transport and metabolism across Caco-2 cell monolayers (Transwell); details: for % Mass Balance / % Mass Transported / % Mass in Apical Side / Pseudo first-order rate constant k + SD / Apparent permeability coefficient Pe + SD / % Ester in the basal compartment / % FA (corresponding free acid) in the basal compartment: 4 h; for % Ester in the basal compartment / % FA (corresponding free acid) in the basal compartment: Table 9, side-by-side experiment
Source text: TRANSEPITHELIAL TRANSPORT AND METABOLISM OF BORONATED DIPEPTIDES ACROSS CACO-2 AND HCT-8 CELL MONOLAYERS Amy L. Elkins,John G. Eley,3, Merrill C. […] This study examined the effect of boronation on the transepithelial transport and metabolism of three glycine-phenylalanine dipeptides in Caco-2 and HCT-8 cell monolayers. […] Oral delivery of proteins and peptides as therapeutic agents is problematic due to their low bioavailability. This is mainly due to both their poor permeability across cellular barriers and to enzymatic degradation that occurs in the gut lumen, brush border, and enterocyte cytoplasm (2). […] Such as a substitution may also have the potential to alter the in vivo bioavailability of dipeptides. […] This study was undertaken to determine the effect of boronation on the transepithelial transport and metabolism of three glycine-phenylalanine dipeptides. […] Caco-2 cells are human colon adenocarcinoma cells first isolated from a primary colonic tumor (4). The cell line undergoes spontaneous enterortic differentiation in culture after reaching cotfflucnce, and morphologically resembles small intestinal epitheliun after three xveeks in culture (5). These morphological characteristics include the development of a brush border region expressing microvilli, occluding junctions, dome formations, and the formation of tight junctions leading to cell polarity. […] The cell line expresses a dipeptide carrier transport system in both the apical and basal membranes (9-10). […] HCT-8 cells are human adenocarcinoma cells from the ileocecal region; as such, these cells may give a truer reflection of gut absorption compared to Caco-2 cells which are derived from the colonic region. The cells produce a polarized differentiated monolayer consisting of enterocyte-like columnar cells that are interconnected by mature tightjunctions and desmosomes and exposed microvilla (11). The structural and functional integrity of the tight junctions of cells grown on polyester filter cups (Falcon, BD) and membrane filter inserts (Transwell(R), Costar) have been confirmed by transmission electron microscopy, transepithelial electrical resistance measurements, and transport of impermeant markers such as mannitol and polyethylene glycol (11, 12). […] Compound//was donated by Boron Biologicals, Inc., Raleigh, NC. Compound 111 was synthesized as follows: L-phenylalanine methyl ester hydrochloride (2.09 g, 9.7 mmol) and dimethylglycine (1 g, 9.7 retool) xvere suspended in 30 ml dry tetrahydrofuran with 10 mmol of triethylamine, dicyclohexyl-carbodiinfide and hydrox3'benzotriazole. The reaction was stirred at room temperature for 48 hours under nitrogen and the solvent was removed under reduced pressure. The product was purified on silica gel, two void volumes of hexane, two void volumes hexane/ethanol (8'1), and then hexane/ethanol (5:1). […] For the transport studies, cells were diluted with growth medium to give a total of […] cells/cm in 1.5 mls. The 1.5 ntis was placed in the apical compartment of a Transwcll(R) (Costar). The Transxvell(R) system is a 6-well plate with each well having an apical compartment capacity of 1.5 ntis, a basal compartment capacity of 2.5 ntis, and a 4.71 cm polycarbonate microporous (0.45 gin) membrane separating the two compartments. Cell monolayers in the Transwell(R) were allowed to grow for 21 days while the medium was replaced every 3 days. The cells were grown in Dulbecco's Modified Eagle Medium (D-MEM) containing L-glutamine and sodium pyruvate at 37C under 5% CO-. and saturated humidity. Additives to the medium included 10% heat- inactivated fetal bovine serum, 10 mM nonessential amino acids, 100 units of penicillin and […] of streptomycin per ml of medium. 278 A.L. Elkins, J.G. Eley, M.C.

[3] = 0.01N NaOH, 37C, 6 hours
[4] = test system: various murine and human tissue cultured cancer cells; details: cited from earlier work
Caco-2 cell monolayers [5] = assay: Basal-to-apical transport across Caco-2 cell monolayers; details: basal-to-apical
Source text: TRANSEPITHELIAL TRANSPORT AND METABOLISM OF BORONATED DIPEPTIDES ACROSS CACO-2 AND HCT-8 CELL MONOLAYERS Amy L. Elkins,John G. Eley,3, Merrill C. […] This study examined the effect of boronation on the transepithelial transport and metabolism of three glycine-phenylalanine dipeptides in Caco-2 and HCT-8 cell monolayers. […] Oral delivery of proteins and peptides as therapeutic agents is problematic due to their low bioavailability. This is mainly due to both their poor permeability across cellular barriers and to enzymatic degradation that occurs in the gut lumen, brush border, and enterocyte cytoplasm (2). […] Such as a substitution may also have the potential to alter the in vivo bioavailability of dipeptides. […] This study was undertaken to determine the effect of boronation on the transepithelial transport and metabolism of three glycine-phenylalanine dipeptides. […] Caco-2 cells are human colon adenocarcinoma cells first isolated from a primary colonic tumor (4). The cell line undergoes spontaneous enterortic differentiation in culture after reaching cotfflucnce, and morphologically resembles small intestinal epitheliun after three xveeks in culture (5). These morphological characteristics include the development of a brush border region expressing microvilli, occluding junctions, dome formations, and the formation of tight junctions leading to cell polarity. […]

[6] = test system: brush border aminopeptidases; details: rat brush border aminopeptidases; cited from earlier work
[7] = perfusion into the jejunum, two studies; cited from earlier work
[8] = Table 10, 37C static, 4 h, initial concentration 0.75 mM
[9] = Table 1, 37C static, initial concentration 0.75 mM
[10] = Table 1, 37C static, initial concentration 1.0 mM
[11] = Table 1, 37C static, initial concentration 2.5 mM
[12] = Table 1, 37C static, initial concentration 5.0 mM
[13] = Table 1, 37C static, initial concentration 7.5 mM
[14] = Table 2, 37C static, initial concentration 1.0 mM
[15] = Table 2, 37C static, initial concentration 5.0 mM (fourth row)
[16] = Table 2, 37C static, initial concentration 7.5 mM

SMILES: COC(=O)[C@H](Cc1ccccc1)NC(=O)[BH2-][N+](C)(C)C [Compound I, N-[(trimethylamine-boryl)-carbonyl]-L-phenylalanine methyl ester]
- unaccounted for as the ester or the respective free acid (HCT-8 cell monolayers; HCT-8 cell monolayers): ~45%
- % Mass Balance (HCT-8 cell monolayers; [8]): 88.2%
- % Mass Transported (HCT-8 cell monolayers; [8]): 77.3%
- % Mass in Apical Side (HCT-8 cell monolayers; [8]): 10.9%
- Mass Transported (collected in the basal medium after 4 hours) (HCT-8 cell monolayers; Table 10, 37C static, initial concentration 0.75 mM): 0.87
- % of the original ester at 25 hours [1]: 96%
- % Mass Balance (Caco-2 cell monolayers [2]; [9]): 63.8%
- % Mass Transported (Caco-2 cell monolayers [2]; [9]): 62.2%
- % Mass in Apical Side (Caco-2 cell monolayers [2]; [9]): 1.6%
- % Mass Balance (Caco-2 cell monolayers [2]; [10]): 67.8%
- % Mass Transported (Caco-2 cell monolayers [2]; [10]): 60.0%
- % Mass in Apical Side (Caco-2 cell monolayers [2]; [10]): 7.8%
- % Mass Balance (Caco-2 cell monolayers [2]; [11]): 73.0%
- % Mass Transported (Caco-2 cell monolayers [2]; [11]): 64.0%
- % Mass in Apical Side (Caco-2 cell monolayers [2]; [11]): 9.0%
- % Mass Balance (Caco-2 cell monolayers [2]; [12]): 71.0%
- % Mass Transported (Caco-2 cell monolayers [2]; [12]): 62.7%
- % Mass in Apical Side (Caco-2 cell monolayers [2]; [12]): 8.3%
- % Mass Balance (Caco-2 cell monolayers [2]; [13]): 74.6%
- % Mass Transported (Caco-2 cell monolayers [2]; [13]): 66.7%
- Mass Transported (collected in the basal medium after 4 hours) (Caco-2 cell monolayers [2]; [10]): 0.90
- Mass Transported (collected in the basal medium after 4 hours) (Caco-2 cell monolayers [2]; [11]): 2.4
- Mass Transported (collected in the basal medium after 4 hours) (Caco-2 cell monolayers [2]; [12]): 4.7
- Mass Transported (collected in the basal medium after 4 hours) (Caco-2 cell monolayers [2]; [13]): 7.5
- Pseudo first-order rate constant k + SD (Caco-2 cell monolayers [2]; Table 2, 37C static, initial concentration 0.75 mM): 1.76 + 0.06 x 104/sec
- Apparent permeability coefficient Pe + SD (Caco-2 cell monolayers [2]; [14]): 35.1 ×10⁻⁶ cm/s
- Pseudo first-order rate constant k + SD (Caco-2 cell monolayers [2]; [14]): 1.70 + 0.08 x 104/sec
- Apparent permeability coefficient Pe + SD (Caco-2 cell monolayers [2]; Table 2, 37C static, initial concentration 2.5 mM): 37.5 ×10⁻⁶ cm/s
- Apparent permeability coefficient Pe + SD (Caco-2 cell monolayers [2]; [15]): 32 ×10⁻⁶ cm/s
- Pseudo first-order rate constant k + SD (Caco-2 cell monolayers [2]; [15]): 1.35 + 0.17 x 104/sec
- Apparent permeability coefficient Pe + SD (Caco-2 cell monolayers [2]; [16]): 37.5 ×10⁻⁶ cm/s
- Pseudo first-order rate constant k + SD (Caco-2 cell monolayers [2]; [16]): 1.56 + 0.11 x 104/sec
- % Mass Balance (Caco-2 cell monolayers [2]; Table 3, 2.5 mM, 4C Rocking): 89.3%
- % Mass Transported (Caco-2 cell monolayers [2]; Table 3, 2.5 mM, 4C Rocking): 48.6%
- % Mass in Apical Side (Caco-2 cell monolayers [2]; Table 3, 2.5 mM, 4C Rocking): 40.7%
- % Mass in Apical Side (Caco-2 cell monolayers [2]; Table 3, 2.5 mM, 37C Rocking): 2%
- % Mass Balance (Caco-2 cell monolayers [2]; Table 3, 2.5 mM, 37C Static): 73.1%
- % Mass Transported (Caco-2 cell monolayers [2]; Table 3, 2.5 mM, 37C Static): 56.9%
- Mass Transported (collected in the basal medium after 4 hours) (Caco-2 cell monolayers [2]; Table 3, initial concentration 2.5 mM, 4C Rocking): 1.8
- Mass Transported (collected in the basal medium after 4 hours) (Caco-2 cell monolayers [2]; Table 3, initial concentration 2.5 mM, 37C Rocking): 3.0
- Mass Transported (collected in the basal medium after 4 hours) (Caco-2 cell monolayers [2]; Table 3, initial concentration 2.5 mM, 37C Static): 2.1
- Pseudo first-order rate constant k + SD (Caco-2 cell monolayers [2]; Table 4, 2.5 mM, 37C Rocking): 3.54 + 0.06 x 104/sec
- Pseudo first-order rate constant k + SD (Caco-2 cell monolayers [2]; Table 4, 2.5 mM, 37C Static): 1.03 + 0.06 x 104/sec
- % Ester in the basal compartment (Caco-2 cell monolayers [2]; 4C Rocking): 74.0%
- % FA (corresponding free acid) in the basal compartment (Caco-2 cell monolayers [2]; 4C Rocking): none
- % Ester in the basal compartment (Caco-2 cell monolayers [2]; 4C Static): 61.8%
- % FA (corresponding free acid) in the basal compartment (Caco-2 cell monolayers [2]; 4C Static): none
- % Ester in the basal compartment (Caco-2 cell monolayers [2]; 37C Static): 44.4% and 44%
- % FA (corresponding free acid) in the basal compartment (Caco-2 cell monolayers [2]; 37C Static): 44.4% and 44%
- mode of transport across the monolayer (Caco-2 cell monolayers [2]; apical-to-basal): passive diffusion
- compound recovered after transport through Caco-2 cell monolayers (Caco-2 cell monolayers [2]; apical-to-basal, 4 hours): Approximately 70%
- recovery after quantitating the free acids at the conclusion of transport experiments (Caco-2 cell monolayers [2]; ester plus free acid): 100%
- ester remaining in the apical compartment (Caco-2 cell monolayers [2]; side-by-side experiment, 37C static, 4 hours): none
- ester degradation to the free acid [3]: all ofthe ester was degraded
- cytotoxicity [4]: potent
- recovery in basal-to-apical transport experiments (Caco-2 cell monolayers [5]): 100%

- Apparent permeability coefficient Pe + SD (Caco-2 cell monolayers [2]; Table 8, 4C Static): 8 ×10⁻⁶ cm/s
SMILES: COC(=O)[C@H](Cc1ccccc1)NC(=O)CN(C)C [Compound III, N,N-dimethylglycyl-L-phenylalanine methyl ester]

SMILES: NCC(=O)N[C@@H](Cc1ccccc1)C(=O)O [glycine-phenylalanine] (H-Gly-Phe-OH)
- substrate specificity [6]: 85%
- disappearance rate [7]: 68% and 79%
